Assay results reported in paper PMC8119466, “A screen of FDA-approved drugs identifies inhibitors of protein tyrosine phosphatase 4A3 (PTP4A3 or PRL-3)” (Scientific Reports, 2021).
Counter-ions that a name gives are not always drawn. Like-named read-outs stand apart in the source and are kept apart here.

Tests used:
Format in all cases: biochemical
recombinant PRL-1 = biological target: T1, recombinant PRL-1 (Homo sapiens, UniProt Q93096); experiment: In vitro phosphatase assay (DiFMUP hydrolysis), PRL-1; note: test concentration or dose not given here
T1 construct: 6xHis (N, cleaved yes); made in house; host or cells: E. coli One Shot BL21 Star
T1 sequence (Q93096 1-173): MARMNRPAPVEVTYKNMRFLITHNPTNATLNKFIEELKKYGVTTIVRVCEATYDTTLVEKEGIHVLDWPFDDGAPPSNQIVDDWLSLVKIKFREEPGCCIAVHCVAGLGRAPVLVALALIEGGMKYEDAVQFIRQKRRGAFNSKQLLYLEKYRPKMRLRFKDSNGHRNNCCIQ

recombinant PRL-3 = biological target: T2, recombinant PRL-3 (Homo sapiens, UniProt O75365); experiment: In vitro phosphatase assay (DiFMUP hydrolysis), PRL-3; note: test concentration or dose not given here
T2 construct: 6xHis (N, cleaved yes); made in house; host or cells: E. coli One Shot BL21 Star
T2 sequence (O75365 whole entry): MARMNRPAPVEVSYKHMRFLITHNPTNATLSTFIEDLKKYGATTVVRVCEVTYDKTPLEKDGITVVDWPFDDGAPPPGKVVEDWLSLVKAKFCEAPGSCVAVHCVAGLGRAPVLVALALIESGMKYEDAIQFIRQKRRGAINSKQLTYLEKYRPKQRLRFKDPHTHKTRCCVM

recombinant PRL-2 = biological target: T3, recombinant PRL-2 (Homo sapiens, UniProt Q12974); experiment: In vitro phosphatase assay (DiFMUP hydrolysis), PRL-2;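 note: PRL-2 activity read as DiFMUP hydrolysis after 20 min at room temperature with drug, enzyme first pre-reduced at 4 °C for 20 min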
T3 construct: 6xHis (N, cleaved yes); made in house; host or cells: E. coli One Shot BL21 Star
T3 sequence (Q12974 1-167): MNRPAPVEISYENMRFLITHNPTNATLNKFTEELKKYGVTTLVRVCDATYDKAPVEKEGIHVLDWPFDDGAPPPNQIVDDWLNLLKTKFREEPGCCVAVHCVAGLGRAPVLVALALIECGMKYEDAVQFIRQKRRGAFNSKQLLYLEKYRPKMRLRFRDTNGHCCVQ

[1] = FDA-approved drug screen, compared to DMSO

CC[C@H]1[C@@H](O)[C@@H]2[C@H](CC[C@]3(C)[C@@H]([C@H](C)CCC(=O)O)CC[C@@H]23)[C@@]2(C)CC[C@@H](O)C[C@@H]12 [Obeticholic Acid]
% Phosphatase Activity (compared to DMSO) PRL-1 (recombinant PRL-1; [1]): 86% | % Phosphatase Activity (compared to DMSO) PRL-3 (recombinant PRL-3; [1]): 90% | % Phosphatase Activity (compared to DMSO) PRL-2 (recombinant PRL-2; [1]): 72%

CNS(=O)(=O)C[C@H]1CC[C@H](N(C)c2ncnc3[nH]ccc23)CC1 [Oclacitinib]
% Phosphatase Activity (compared to DMSO) PRL-1 (recombinant PRL-1; [1]): 98% | % Phosphatase Activity (compared to DMSO) PRL-3 (recombinant PRL-3; [1]): 80% | % Phosphatase Activity (compared to DMSO) PRL-2 (recombinant PRL-2; [1]): 81%

C[C@@H](O)[C@@H]1NC(=O)[C@H](CCCCN)NC(=O)[C@@H](Cc2c[nH]c3ccccc23)NC(=O)[C@H](Cc2ccccc2)NC(=O)[C@@H](NC(=O)[C@H](N)Cc2ccccc2)CSSC[C@@H](C(=O)N[C@H](CO)[C@@H](C)O)NC1=O [Octreotide Acetate]
% Phosphatase Activity (compared to DMSO) PRL-1 (recombinant PRL-1; [1]): 99% | % Phosphatase Activity (compared to DMSO) PRL-3 (recombinant PRL-3; [1]): 93% | % Phosphatase Activity (compared to DMSO) PRL-2 (recombinant PRL-2; [1]): 90%

CC1COc2c(N3CCN(C)CC3)c(F)cc3c(=O)c(C(=O)O)cn1c23 (stereo not drawn) [Ofloxacin]
% Phosphatase Activity (compared to DMSO) PRL-1 (recombinant PRL-1; [1]): 301% | % Phosphatase Activity (compared to DMSO) PRL-3 (recombinant PRL-3; [1]): 134% | % Phosphatase Activity (compared to DMSO) PRL-2 (recombinant PRL-2; [1]): 271%

Cc1cc2c(s1)Nc1ccccc1N=C2N1CCN(C)CC1 [Olanzapine]
% Phosphatase Activity (compared to DMSO) PRL-1 (recombinant PRL-1; [1]): 99% | % Phosphatase Activity (compared to DMSO) PRL-3 (recombinant PRL-3; [1]): 80% | % Phosphatase Activity (compared to DMSO) PRL-2 (recombinant PRL-2; [1]): 97%

O=C(c1cc(Cc2n[nH]c(=O)c3ccccc23)ccc1F)N1CCN(C(=O)C2CC2)CC1 [Olaparib (AZD2281, Ku-0059436)]
% Phosphatase Activity (compared to DMSO) PRL-1 (recombinant PRL-1; [1]): 88% | % Phosphatase Activity (compared to DMSO) PRL-3 (recombinant PRL-3; [1]): 91% | % Phosphatase Activity (compared to DMSO) PRL-2 (recombinant PRL-2; [1]): 101%

CCCc1nc(C(C)(C)O)c(C(=O)OCc2oc(=O)oc2C)n1Cc1ccc(-c2ccccc2-c2nnn[nH]2)cc1 [Olmesartan Medoxomil]
% Phosphatase Activity (compared to DMSO) PRL-1 (recombinant PRL-1; [1]): 97% | % Phosphatase Activity (compared to DMSO) PRL-3 (recombinant PRL-3; [1]): 76% | % Phosphatase Activity (compared to DMSO) PRL-2 (recombinant PRL-2; [1]): 93%

C=CC(=O)Nc1cccc(Oc2nc(Nc3ccc(N4CCN(C)CC4)cc3)nc3ccsc23)c1 [Olmutinib (HM61713, BI 1482694)]
% Phosphatase Activity (compared to DMSO) PRL-1 (recombinant PRL-1; [1]): 90% | % Phosphatase Activity (compared to DMSO) PRL-3 (recombinant PRL-3; [1]): 94% | % Phosphatase Activity (compared to DMSO) PRL-2 (recombinant PRL-2; [1]): 87%

CN(C)CC/C=C1/c2ccccc2COc2ccc(CC(=O)O)cc21 [Olopatadine HCl]
% Phosphatase Activity (compared to DMSO) PRL-1 (recombinant PRL-1; [1]): 116% | % Phosphatase Activity (compared to DMSO) PRL-3 (recombinant PRL-3; [1]): 74% | % Phosphatase Activity (compared to DMSO) PRL-2 (recombinant PRL-2; [1]): 121%

O=C(O)c1cc(/N=N/c2ccc(O)c(C(=O)O)c2)ccc1O [Olsalazine Sodium]
% Phosphatase Activity (compared to DMSO) PRL-1 (recombinant PRL-1; [1]): 59% | % Phosphatase Activity (compared to DMSO) PRL-3 (recombinant PRL-3; [1]): 61% | % Phosphatase Activity (compared to DMSO) PRL-2 (recombinant PRL-2; [1]): 53%

Cc1c(-c2cnccn2)ssc1=S [Oltipraz]
% Phosphatase Activity (compared to DMSO) PRL-1 (recombinant PRL-1): 90% | % Phosphatase Activity (compared to DMSO) PRL-3 (recombinant PRL-3): 76% | % Phosphatase Activity (compared to DMSO) PRL-2 (recombinant PRL-2): 73%

COc1ccc2[nH]c([S+]([O-])Cc3ncc(C)c(OC)c3C)nc2c1 (stereo not drawn) [Omeprazole]
% Phosphatase Activity (compared to DMSO) PRL-1 (recombinant PRL-1; [1]): 89% | % Phosphatase Activity (compared to DMSO) PRL-3 (recombinant PRL-3; [1]): 54% | % Phosphatase Activity (compared to DMSO) PRL-2 (recombinant PRL-2; [1]): 96%

Cc1nccn1CC1CCc2c(c3ccccc3n2C)C1=O.Cl (stereo not drawn) [Ondansetron HCl]
% Phosphatase Activity (compared to DMSO) PRL-1 (recombinant PRL-1; [1]): 103% | % Phosphatase Activity (compared to DMSO) PRL-3 (recombinant PRL-3; [1]): 96% | % Phosphatase Activity (compared to DMSO) PRL-2 (recombinant PRL-2; [1]): 108%

CCCCCCCCCCC[C@@H](C[C@@H]1OC(=O)[C@H]1CCCCCC)OC(=O)[C@H](CC(C)C)NC=O [Orlistat]
% Phosphatase Activity (compared to DMSO) PRL-1 (recombinant PRL-1; [1]): 113% | % Phosphatase Activity (compared to DMSO) PRL-3 (recombinant PRL-3; [1]): 79% | % Phosphatase Activity (compared to DMSO) PRL-2 (recombinant PRL-2; [1]): 91%

Cc1ncc([N+](=O)[O-])n1CC(O)CCl (stereo not drawn) [Ornidazole]
% Phosphatase Activity (compared to DMSO) PRL-1 (recombinant PRL-1; [1]): 104% | % Phosphatase Activity (compared to DMSO) PRL-3 (recombinant PRL-3; [1]): 84% | % Phosphatase Activity (compared to DMSO) PRL-2 (recombinant PRL-2; [1]): 102%

O=C(O)c1cc(=O)[nH]c(=O)[nH]1.O=C(O)c1cc(=O)[nH]c(=O)[nH]1 [Orotic acid (6-Carboxyuracil)]
% Phosphatase Activity (compared to DMSO) PRL-1 (recombinant PRL-1; [1]): 106% | % Phosphatase Activity (compared to DMSO) PRL-3 (recombinant PRL-3; [1]): 95% | % Phosphatase Activity (compared to DMSO) PRL-2 (recombinant PRL-2; [1]): 109%
